PMC8319670 (Science translational medicine, 2021)
Each block holds one compound with its values, some of them ahead of it.

What was measured:
PARP-1 = details: cited from earlier work
H6PD [1] = target: T1, H6PD (Homo sapiens, UniProt O95479); assay: H6PD IC50 assay; assay type: biochemical; details: for loss of H6PD inhibitory potency: relative to rucaparib
T1 sequence (O95479 20-791): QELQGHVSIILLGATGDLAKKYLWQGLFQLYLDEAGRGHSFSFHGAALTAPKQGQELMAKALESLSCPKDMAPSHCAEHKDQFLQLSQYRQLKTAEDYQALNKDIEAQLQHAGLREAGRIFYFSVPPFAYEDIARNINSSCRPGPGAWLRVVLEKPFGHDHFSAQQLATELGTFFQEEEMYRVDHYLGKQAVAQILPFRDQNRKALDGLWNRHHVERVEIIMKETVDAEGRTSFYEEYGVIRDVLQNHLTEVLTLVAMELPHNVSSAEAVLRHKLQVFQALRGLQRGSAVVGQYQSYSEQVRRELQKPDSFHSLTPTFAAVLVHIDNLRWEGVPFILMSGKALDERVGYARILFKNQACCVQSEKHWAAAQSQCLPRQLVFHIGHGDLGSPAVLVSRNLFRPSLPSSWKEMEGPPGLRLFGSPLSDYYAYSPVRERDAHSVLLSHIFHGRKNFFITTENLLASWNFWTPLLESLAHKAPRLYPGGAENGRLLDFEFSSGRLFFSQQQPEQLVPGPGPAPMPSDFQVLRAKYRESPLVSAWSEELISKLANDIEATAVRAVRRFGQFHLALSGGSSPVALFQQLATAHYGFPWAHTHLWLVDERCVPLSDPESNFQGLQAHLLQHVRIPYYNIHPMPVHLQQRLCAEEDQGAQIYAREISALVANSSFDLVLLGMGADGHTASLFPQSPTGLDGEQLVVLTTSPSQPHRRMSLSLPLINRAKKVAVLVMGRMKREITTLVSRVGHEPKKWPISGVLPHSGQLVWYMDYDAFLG

[2] = system: H6PD activity in LAPC4 cells; assay: Endoplasmic reticulum / microsomal NADPH in LAPC4 cells
G6PD = G6PD (Homo sapiens, UniProt P11413); assay: G6PD activity assay; assay type: biochemical; details: fig. S10
Sequence of G6PD (P11413 whole entry): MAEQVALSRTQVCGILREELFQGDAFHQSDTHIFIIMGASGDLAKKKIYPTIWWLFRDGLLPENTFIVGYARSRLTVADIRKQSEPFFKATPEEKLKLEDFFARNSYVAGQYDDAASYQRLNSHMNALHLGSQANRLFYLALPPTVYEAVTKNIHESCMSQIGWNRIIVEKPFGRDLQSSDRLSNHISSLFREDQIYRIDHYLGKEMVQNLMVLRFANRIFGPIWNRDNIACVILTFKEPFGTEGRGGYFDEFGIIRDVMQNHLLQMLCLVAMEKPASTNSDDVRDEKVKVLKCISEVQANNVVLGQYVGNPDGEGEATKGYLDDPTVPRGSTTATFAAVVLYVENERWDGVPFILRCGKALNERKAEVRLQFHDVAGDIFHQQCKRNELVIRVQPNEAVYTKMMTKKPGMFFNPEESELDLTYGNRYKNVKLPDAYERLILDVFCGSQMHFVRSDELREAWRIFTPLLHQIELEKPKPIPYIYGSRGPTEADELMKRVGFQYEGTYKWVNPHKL

H6PD [3] = details: of four PARP inhibitors; cited from earlier work
[4] = system: enz-resistant LAPC4 cells; assay: Cell viability assay; assay type: cell-based, human; details: 100 nM cortisol with 10 μM enz, 5 days; Fig 4E
H6PD [5] = target: T1, H6PD; assay: Surface plasmon resonance; assay type: binding; details: SPR; Fig. 4A and fig. S9
H6PD [6] = target: T1, H6PD; assay: In vitro H6PD activity assay; assay type: biochemical; details: for inhibition of H6PD activity: fig. S10
H6PD [7] = assay: H6PD protein in prostate cancer patient tissues; parameters: species or system human; details: men with prostate cancer treated with enz and prostate tissues treated ex vivo; compared with pre-treatment
H6PD protein = H6PD protein immunoblot in enz-treated cell lines; assay type: cell-based, human; details: in vitro, LAPC4, VCaP and MDA-Pca-2b; transcript not increased
prostate cancer cells = assay: Glucocorticoid metabolism with apalutamide treatment; assay type: cell-based, human; details: similar to enzalutamide

IC50 (H6PD [1]; read-out: H6PD IC50): 27 µM
Compound: O=C1NCCc2c(-c3ccc(CO)cc3)[nH]c3cc(F)cc1c23 [Compound 5]
PARP inhibition activity (PARP-1): poor PARP inhibition activity

loss of H6PD inhibitory potency (H6PD [1]): greater than 20 x
Compound: CNCc1ccc(-c2[nH]c3cccc4c3c2CCNC4=O)cc1 [Compound 2]

inhibition of G6PD activity (G6PD): neither inhibited G6PD activity
binding to H6PD (H6PD [5]): specifically bound H6PD
inhibition of H6PD activity (H6PD [6]): inhibited H6PD activity
inhibition of H6PD activity (H6PD [6]; listed as Rucaparib): modest H6PD inhibitor
Compound: CNCc1ccc(-c2[nH]c3cc(F)cc4c3c2CCNC4=O)cc1 [rucaparib]
H6PD generation of NADPH in enz-resistant prostate cancer ([2]; enz-resistant LAPC4 cells, 24 hours, microsomal NADPH, Fig 4C): inhibited H6PD generation of NADPH
off-target H6PD inhibition (H6PD [3]): off-target H6PD inhibition was specifically identified only with rucaparib
cell viability [4]: limited cell viability in vitro
H6PD generation of NADPH in vitro (H6PD [6]; H6PD protein, D-glucosamine 6-phosphate and NADP, 1 hour, Fig 4B): inhibited H6PD generation of NADPH in vitro

Compound: CNC(=O)c1ccc(N2C(=S)N(c3ccc(C#N)c(C(F)(F)F)c3)C(=O)C2(C)C)cc1F [enzalutamide]
increase in NADPH generation in the endoplasmic reticulum ([2]; LAPC4 cells, continuous enz treatment, p<0.0001): > 2 fold
H6PD in patient tissues post-treatment (H6PD [7]): increase in H6PD was also detectable
H6PD protein (H6PD protein): increased

inhibition of G6PD activity (G6PD): neither inhibited G6PD activity
inhibition of H6PD activity (H6PD [6]): but not olaparib inhibited H6PD activity
Compound: O=C(c1cc(Cc2n[nH]c(=O)c3ccccc23)ccc1F)N1CCN(C(=O)C2CC2)CC1 [olaparib]
binding to H6PD (H6PD [5]): but not olaparib (another PARP inhibitor) specifically bound H6PD

loss of H6PD inhibitory potency (H6PD [1]): ~ 10 x
Compound: CNCc1ccc(-c2[nH]c3cc(F)cc4c3c2CCN(C)C4=O)cc1 [Compound 4]

Compound: CNC(=O)c1ccc(N2C(=S)N(c3cnc(C#N)c(C(F)(F)F)c3)C(=O)C23CCC3)cc1F [apalutamide]
changes in glucocorticoid metabolism (prostate cancer cells): induces similar changes in glucocorticoid metabolism
